One assay concerns the target T1, human EP1 receptor (Homo sapiens, UniProt P34995).
T1 construct: expressed in transfected cells; host or cells: CHO-K1
T1 sequence (P34995 1-402): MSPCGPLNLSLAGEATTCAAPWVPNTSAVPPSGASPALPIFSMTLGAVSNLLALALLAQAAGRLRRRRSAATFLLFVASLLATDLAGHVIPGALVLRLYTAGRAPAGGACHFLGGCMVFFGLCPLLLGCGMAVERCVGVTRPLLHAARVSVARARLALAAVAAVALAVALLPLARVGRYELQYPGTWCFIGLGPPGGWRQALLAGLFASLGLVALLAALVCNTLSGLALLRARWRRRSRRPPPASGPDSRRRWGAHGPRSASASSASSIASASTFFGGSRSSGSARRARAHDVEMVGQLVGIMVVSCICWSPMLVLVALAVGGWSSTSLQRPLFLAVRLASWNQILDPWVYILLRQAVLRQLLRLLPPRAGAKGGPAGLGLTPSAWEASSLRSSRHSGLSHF
Put plainly: human EP1 calcium mobilisation assay. Type of assay: cell-based. The following applies: for Ki: human EP1, CHO-K1 cells, antagonism of PGE2, averages of a number of experiments, read-out: functional pKi value (converted); for IC50: human EP1 calcium mobilisation assay, read-out: pIC50 values (converted). The protocol: Briefly, the antagonist properties of compounds are assessed by their ability to inhibit the mobilisation of intracellular calcium ([Ca^2+]i) in response to activation of EP1 or EP3 receptors by the natural agonist hormone prostaglandin E2 (PGE2). Increasing concentrations of antagonist reduce the amount of calcium that a given concentration of PGE2 can mobilise. The net effect is to displace the PGE2 concentration-effect curve to higher concentrations of PGE2. The amount of calcium produced is assessed using a calcium-sensitive fluorescent dye such as Fluo-4, AM and a suitable instrument such as a Fluorimetric Imaging Plate Reader (FLIPR). Increasing amounts of [Ca^2+]i produced by receptor activation increase the amount of fluorescence produced by the dye and give rise to an increasing signal. The signal may be detected using the FLIPR instrument and the data generated may be analysed with suitable curve-fitting software.
The human EP1 or EP3 calcium mobilisation assay (hereafter referred to as ‘the calcium assay’) utilises Chinese hamster ovary-K1 (CHO-K1) cells into which a stable (pCIN; BioTechniques 20 (1996): 102-110) vector containing either EP1 or EP3 cDNA has previously been transfected. Cells are cultured in suitable flasks containing culture medium such as DMEM:F-12 supplemented with 10% v/v foetal calf serum, 2 mM L-glutamine, 0.25 mg/ml geneticin, 100 μM flurbiprofen and 10 μg/ml puromycin.
For assay, cells are harvested using a proprietary reagent that dislodges cells such as Versene. Cells are re-suspended in a suitable quantity of fresh culture media for introduction into a 384-well plate. Following incubation for 24 hours at 37° C. the culture media is replaced with a medium containing Fluo-4 and the detergent pluronic acid, and a further incubation takes place. Concentrations of compounds are then added to the plate in order to construct concentration-effect curves. This may be performed on the FLIPR in order to assess the agonist properties of the compounds. Concentrations of PGE2 are then added to the plate in order to assess the antagonist properties of the compounds.
The data so generated may be analysed by means of a computerised curve-fitting routine. The concentration of compound that elicits a half-maximal inhibition of the calcium mobilisation induced by PGE2 (pIC50) may then be estimated.

Assay [1] addresses T2, human prostanoid EP1 receptor (Homo sapiens, UniProt P34995).
T2 construct: expressed in transfected cells; host or cells: CHO-K1 (membrane fraction)
T2 sequence (P34995 1-402): T1 sequence (P34995 1-402)
Put plainly: Binding assay for the human prostanoid EP1 receptor (competition with [3H]-PGE2). The following applies: [3H]-PGE2 competition, human EP1, CHO-K1 membranes; averages of a number of experiments; read-out: pIC50 value (converted). The procedure: Competition assay using [^3H]-PGE2.
Compound potencies are determined using a radioligand binding assay. In this assay compound potencies are determined from their ability to compete with tritiated prostaglandin E2 ([^3H]-PGE2) for binding to the human EP1 receptor.
This assay utilises Chinese hamster ovary-K1 (CHO-K1) cells into which a stable vector containing the EP1 cDNA has previously been transfected. Cells are cultured in suitable flasks containing culture medium such as DMEM:F-12 supplemented with 10% v/v foetal calf serum, 2 mM L-glutamine, 0.25 mg/ml geneticin, 10 μg/ml puromycin and 10 μM indomethacin.
Cells are detached from the culture flasks by incubation in calcium and magnesium free phosphate buffered saline containing 1 mM disodium ethylenediaminetetraacetic acid (Na2EDTA) and 10 μM indomethacin for 5 min. The cells are isolated by centrifugation at 250×g for 5mins and suspended in an ice cold buffer such as 50 mM Tris, 1 mM Na2EDTA, 140 mM NaCl, 10 μM indomethacin (pH 7.4). The cells are homogenised using a Polytron tissue disrupter (2×10 s burst at full setting), centrifuged at 48,000×g for 20mins and the pellet containing the membrane fraction is washed (optional) three times by suspension and centrifugation at 48,000×g for 20mins. The final membrane pellet is suspended in an assay buffer such as 10 mM 2-[N-morpholino]ethanesulphonic acid, 1 mM Na2EDTA, 10 mM MgCl2 (pH 6). Aliquots are frozen at −80° C. until required.
For the binding assay the cell membranes, competing compounds and [^3H]-PGE2 (3 nM final assay concentration) are incubated in a final volume of 100 μl for 30 min at 30° C. All reagents are prepared in assay buffer. Reactions are terminated by rapid vacuum filtration over GF/B filters using a Brandell cell harvester. The filters are washed with ice cold assay buffer, dried and the radioactivity retained on the filters is measured by liquid scintillation counting in Packard TopCount scintillation counter.
The data are analysed using non linear curve fitting techniques to determine the concentration of compound producing 50% inhibition of specific binding (IC50).

Molecules are shown by their SMILES. Counter-ions that a name gives are not always drawn. Some results are limits rather than exact numbers.

Regarding `O=C(Cc1ccccc1)Nc1cccc(Cc2cc(Cl)ccc2OCc2ccccc2)n1` [Example 2, N-[6-({5-Chloro-2-[(phenylmethyl)oxy]phenyl}methyl)-2-pyridinyl]-2-phenylacetamide], the Ki on human EP1 receptor is no more than 10 µM.
Turning to `O=C(Nc1cccc(Cc2cc(Cl)ccc2OCc2ccccc2)n1)c1ccccc1` [Example 3, N-[6-({5-Chloro-2-[(phenylmethyl)oxy]phenyl}methyl)-2-pyridinyl]benzamide], the Ki at human EP1 receptor was no more than 0.316 µM.
As for `O=C(Nc1ccccn1)c1cccc(Cc2cc(Cl)ccc2OCc2ccccc2)n1` [Example 6, 6-({5-Chloro-2-[(phenylmethyl)oxy]phenyl}methyl)-N-2-pyridinyl-2-pyridinecarboxamide], the IC50 on human EP1 receptor was greater than 10 µM.
For `O=C(NCc1ccccn1)c1cccc(Cc2cc(Cl)ccc2OCc2ccccc2)n1` [Example 7, 6-({5-Chloro-2-[(phenylmethyl)oxy]phenyl}methyl)-N-(2-pyridinylmethyl)-2-pyridinecarboxamide], the Ki at human EP1 receptor was no more than 0.316 µM.
On to `O=C(Nc1ccccc1)c1cccc(Cc2cc(Cl)ccc2OCc2ccccc2)n1` [Example 10, 6-({5-Chloro-2-[(phenylmethyl)oxy]phenyl}methyl)-N-phenyl-2-pyridinecarboxamide], for which the IC50 at human EP1 receptor was greater than 10 µM.
Take `O=C(NCc1ccccc1)c1cccc(Cc2cc(Cl)ccc2OCc2ccccc2)n1` [Example 11, 6-({5-Chloro-2-[(phenylmethyl)oxy]phenyl}methyl)-N-(phenylmethyl)-2-pyridinecarboxamide]: the IC50 on human EP1 receptor was greater than 10 µM.
In the case of `O=C(Nc1cccc(Cc2cc(Cl)ccc2OCc2ccccc2)n1)c1cccnc1` [Example 16, N-[6-({5-Chloro-2-[(phenylmethyl)oxy]phenyl}methyl)-2-pyridinyl]-3-pyridinecarboxamide], the IC50 at human EP1 receptor was greater than 10 µM.
Turning to `O=C(Nc1cccc(Cc2cc(Cl)ccc2OCc2ccccc2)n1)C1CCCO1` (centres unmarked) [Example 17, N-[6-({5-Chloro-2-[(phenylmethyl)oxy]phenyl}methyl)-2-pyridinyl]tetrahydro-2-furancarboxamide], the IC50 in assay [1] was no more than 0.1 µM.
Same read-out and setting: with `O=C(Nc1cccc(Cc2cc(Cl)ccc2OCc2ccccc2)n1)C1CCOC1` (centres unmarked) [Example 18, N-[6-({5-Chloro-2-[(phenylmethyl)oxy]phenyl}methyl)-2-pyridinyl]tetrahydro-3-furancarboxamide] the figure was no more than 0.1 µM.
For the compound `CC(C)COc1ccc(Cl)cc1Cc1cccc(-c2nc3cnc4ccccc4c3[nH]2)n1` [Example 24, 2-[6-({5-Chloro-2-[(2-methylpropyl)oxy]phenyl}methyl)-2-pyridinyl]-1H-imidazo[4,5-c]quinoline hydrochloride], the Ki at human EP1 receptor was no more than 0.316 µM.
On the same count and under the same terms, under `CN1CCN(c2ccc3nc(-c4cccc(Cc5cc(Cl)ccc5OCc5ccccc5)n4)[nH]c3c2)CC1` [Example 26, 2-[6-({5-Chloro-2-[(phenylmethyl)oxy]phenyl}methyl)-2-pyridinyl]-5-(4-methyl-1-piperazinyl)-1H-benzimidazole Hydrochloride] stands no more than 10 µM; under `Fc1cccc2[nH]c(-c3cccc(Cc4cc(Cl)ccc4OCc4ccccc4)n3)nc12` [Example 32, 2-[6-({5-Chloro-2-[(phenylmethyl)oxy]phenyl}methyl)-2-pyridinyl]-4-fluoro-1H-benzimidazolehydrochioride], no more than 10 µM.
On to `Fc1cc2nc(-c3cccc(Cc4cc(Cl)ccc4OCc4ccccc4)n3)[nH]c2cc1F` [Example 37, 2-[6-({5-Chloro-2-[(phenylmethyl)oxy]phenyl}methyl)-2-pyridinyl]-5,6-difluoro-1H-benzimidazolehydrochloride], for which the IC50 on human EP1 receptor is greater than 10 µM.
For the compound `Clc1ccc(OCc2ccccc2)c(Cc2cccc(-c3nc4cnccc4[nH]3)n2)c1` [Example 38, 2-[6-({5-Chloro-2-[(phenylmethyl)oxy]phenyl}methyl)-2-pyridinyl]-1H-imidazo[4,5-c]pyridinehydrochloride], at human EP1 receptor, the Ki is no more than 0.316 µM.
`Fc1ccc2nc(-c3cccc(Cc4cc(Cl)ccc4OCc4ccccc4)n3)[nH]c2c1F` [Example 40, 2-[6-({5-Chloro-2-[(phenylmethyl)oxy]phenyl}methyl)-2-pyridinyl]-4,5-difluoro-1H-benzimidazolehydrochloride]: on human EP1 receptor, the IC50 is greater than 10 µM.
Take `CC(C)COc1ccc(Cl)cc1Cc1cccc(-c2ncc[nH]2)n1` [Example 42, 2-({5-Chloro-2-[(2-methylpropyl)oxy]phenyl}methyl)-6-(1H-imidazol-2-yl)pyridine]: the IC50 in assay [1] was no more than 0.1 µM.
In the case of `CC(C)COc1ccc(Cl)cc1Cc1cccc(NC(=O)c2ccc(CN3CCOCC3)cc2)n1` [Example 45, N-[6-({5-Chloro-2-[(2-methylpropyl)oxy]phenyl}methyl)-2-pyridinyl]-4-(4-morpholinylmethyl)benzamide Hydrochloride], the Ki on human EP1 receptor was no more than 0.316 µM.
The same measure, in the same setting: with `CC(C)COc1ccc(Cl)cc1Cc1cccc(NC(=O)c2ccc(CN3CCCC3)cc2)n1` [Example 46, N-[6-({5-Chloro-2-[(2-methylpropyl)oxy]phenyl}methyl)-2-pyridinyl]-4-(1-pyrrolidinylmethyl)benzamidehydrochloride] the figure was no more than 10 µM; with `CC(C)COc1ccc(Cl)cc1Cc1cccc(NC(=O)c2ccc(CN3CCCCC3)cc2)n1` [Example 47, N-[6-({5-Chloro-2-[(2-methylpropyl)oxy]phenyl}methyl)-2-pyridinyl]-4-(1-piperidinylmethyl)benzamidehydrochloride], no more than 10 µM.
The same measure, in the same setting: with `CC(C)COc1ccc(Cl)cc1Cc1cccc(NC(=O)c2ccc(CN3CCN(C)CC3)cc2)n1` [Example 48] the figure was no more than 10 µM; with `CC(C)COc1ccc(Cl)cc1Cc1cccc(-c2nc3ccc(CN4CCCCC4)cc3[nH]2)n1` [Example 50, 2-[6-({5-Chloro-2-[(2-methylpropyl)oxy]phenyl}methyl)-2-pyridinyl]-5-(1-piperidinylmethyl)-1H-benzimidazole hydrochloride], no more than 10 µM; with `CC(C)(C)OC(=O)Nc1cccc(Cc2cc(Cl)ccc2OCc2ccc(Cl)cc2F)n1` [Example 60, 1,1-Dimethylethyl {6-[(5-chloro-2-{[(4-chloro-2-fluoronhenyl)methyl]oxy}phenyl)methyl]-2-pyridinyl}carbamate], no more than 10 µM.
Same read-out and setting: with `NC(=O)c1cccc(Cc2cc(Cl)ccc2OCc2ccc(Cl)cc2F)n1` [Example 63, 6-[(5-Chloro-2-{[(4-chloro-2-fluorophenyl)methyl]oxy}phenyl)methyl]-2-pyridinecarboxamide] the figure was no more than 10 µM.

Source of the values: patent US20090099177A1, “PYRIDYL COMPOUNDS” (priority 2006, published 2009).
